ChEMBL document CHEMBL4831477, “Structure-Enabled Discovery of Novel Macrocyclic Inhibitors Targeting Glutaminase 1 Allosteric Binding Site” (J Med Chem, 2021)
Values after ≈ are worked out from the molar mass of the structure shown. Active and inactive are the calls of the source. The calls are words filed in the database; no cut-off is given here.

Key:
MDA-MB-436 = assay: Antiproliferative activity against human MDA-MB-436 cells assessed as reduction in cell viability incubated for 72 hrs by MTT assay; format: functional, cell-based; conditions: MDA-MB-436, 72 h
HCT-116 [1] = assay: Inhibition of clone formation in human HCT-116 cells at 0.1 to 2 microM incubated for 14 days by crystal violet staining based assay; format: functional, cell-based; conditions: dose 0.1-2 µM, time 14.0 day
HCT-116 [2] = assay: Induction of ROS generation in human HCT-116 cells at 500 nM preincubated for 1 hr with NAC followed by compound addition by measured after 3 hrs DCFH-DA dye based flow cytometric analysis; format: functional, cell-based
[3] = Intrinsic aqueous solubility of compound at pH 7.4 by LC-MS based shake-flask method; format: physicochemical; conditions: read-out: Intrinsic_solubility
[4] = Metabolic stability in human plasma assessed as compound remaining after 2 hrs by LC-MS/MS analysis; format: ADME, cell-free; conditions: read-out: Stability
[5] = Metabolic stability in human liver microsomes assessed as half life at 10 uM preincubated for 5 mins followed by NADPH addition by LC-MS/MS analysis; format: ADME, Microsome
[6] = Metabolic stability in mouse liver microsomes assessed as half life at 10 uM preincubated for 5 mins followed by NADPH addition by LC-MS/MS analysis; format: ADME, Microsome
[7] = Half life in Sprague-Dawley rat at 200 mg/kg, po measured upto 72 hrs by LC-MS/MS analysis; format: ADME, organism-based; conditions: in vivo
[8] = Cmax in Sprague-Dawley rat at 200 mg/kg, po measured upto 72 hrs by LC-MS/MS analysis; format: ADME, organism-based; design: route oral, dose 200 mg/kg, time <=72; conditions: in vivo
[9] = AUC(0 to infinity) in Sprague-Dawley rat at 200 mg/kg, po measured upto 72 hrs by LC-MS/MS analysis; format: ADME, organism-based; design: route oral, dose 200 mg/kg, time <=72; conditions: in vivo, 72 h
[10] = Clearance in Sprague-Dawley rat at 5 mg/kg, iv measured upto 72 hrs by LC-MS/MS analysis; format: ADME, organism-based; conditions: Sprague-Dawley, in vivo
[11] = Cmax in BALB/c nude mouse plasma xenografted with human HCT-116 cells at 200 mg/kg, po administered twice daily for 28 days; format: ADME, organism-based; design: route oral, time 28 day, dose 200 mg/kg
[12] = fCmax in BALB/c nude mouse plasma xenografted with human HCT-116 cells at 200 mg/kg, po administered twice daily for 28 days; format: ADME, organism-based; conditions: in vivo, 672 h, time 28 day
[13] = Acute toxicity in BALB/c nude mouse assessed as kidney damage at 200 mg/kg, po administered twice daily for 4 weeks by H and E staining based optical microscopic analysis; format: organism-based; conditions: in vivo, 672 h
[14] = biological target: T1, Glutaminase kidney isoform, mitochondrial (Mus musculus) (UniProt D3Z7P3); assay: In vivo inhibition of GLS1 in BALB/c mouse xenografted with human HCT-116 cells assessed as increase in glutamine level at 200 mg/kg, po; format: functional, organism-based
T1 sequence (whole entry): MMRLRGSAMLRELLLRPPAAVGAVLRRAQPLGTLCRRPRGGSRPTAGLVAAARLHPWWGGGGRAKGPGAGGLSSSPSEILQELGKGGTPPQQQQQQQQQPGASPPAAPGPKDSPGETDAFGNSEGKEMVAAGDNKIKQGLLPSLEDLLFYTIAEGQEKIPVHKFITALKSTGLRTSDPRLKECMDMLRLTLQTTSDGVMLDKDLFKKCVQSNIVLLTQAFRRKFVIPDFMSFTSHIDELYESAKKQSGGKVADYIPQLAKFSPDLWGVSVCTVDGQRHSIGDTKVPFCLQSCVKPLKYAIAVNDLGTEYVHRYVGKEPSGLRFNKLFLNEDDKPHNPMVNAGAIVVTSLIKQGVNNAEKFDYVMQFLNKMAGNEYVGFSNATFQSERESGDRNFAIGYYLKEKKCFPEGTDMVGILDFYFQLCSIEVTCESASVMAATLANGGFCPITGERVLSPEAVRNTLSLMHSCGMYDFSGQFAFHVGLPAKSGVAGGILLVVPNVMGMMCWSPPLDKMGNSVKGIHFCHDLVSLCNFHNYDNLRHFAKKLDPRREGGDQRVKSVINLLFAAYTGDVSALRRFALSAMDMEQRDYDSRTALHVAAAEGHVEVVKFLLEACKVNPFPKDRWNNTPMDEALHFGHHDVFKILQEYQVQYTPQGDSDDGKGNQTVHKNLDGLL

[15] = biological target: T1, Glutaminase kidney isoform, mitochondrial (Mus musculus); assay: In vivo inhibition of GLS1 in BALB/c mouse xenografted with human HCT-116 cells assessed as reduction in glutamate level at 200 mg/kg, po; format: functional, organism-based
[16] = biological target: T1, Glutaminase kidney isoform, mitochondrial (Mus musculus); assay: In vivo inhibition of GLS1 in BALB/c mouse xenografted with human HCT-116 cells assessed as reduction in aspartate level at 200 mg/kg, po; format: functional, organism-based
[17] = biological target: T1, Glutaminase kidney isoform, mitochondrial (Mus musculus); assay: In vivo inhibition of GLS1 in BALB/c mouse xenografted with human HCT-116 cells assessed as reduction in alpha-ketoglutarate level at 200 mg/kg, po; format: functional, organism-based

O=C1Cc2cccc(c2)OCC/C=C/CCOc2cccc(c2)CC(=O)Nc2nnc(s2)CCCCc2ccc(nn2)N1
IC50 (MDA-MB-436): 340 nM | inhibition (HCT-116 [1]): Active | Activity (HCT-116 [2]): inactive | solubility thermodynamic [3]: 1.73 µg/mL (≈ 2.89 µM) | remaining at 2 h [4]: 92% | half-life at 10 µM [5]: 2.72 h | half-life at 10 µM [6]: 1.7 h | half-life [7]: 5.7 h | Cmax [8]: 1030 ng/mL | AUC [9]: 6064 ng·h/mL | clearance [10]: 53.3 mL/min/kg | Cmax [11]: 1630 nM | fCmax [12]: 0.21 µM | Activity [13]: Non-Toxic | inhibition [14]: Active | inhibition [15]: Active | inhibition [16]: Active | inhibition [17]: Active
